Measurements from ChEMBL document CHEMBL1154003, “Synthesis of boronic acid derivatives of tyropeptin: proteasome inhibitors” (Bioorg Med Chem Lett, 2009).
Calls of active or inactive are those of the source. The rule behind the calls is not given here.

Assays:
[1] = Inhibition of chymotrypsin-like activity of human 20S proteasome
[2] = Inhibition of peptidylglutamyl-peptide hydrolyzing activity of human 20S proteasome
[3] = Inhibition of trypsin-like activity of human 20S proteasome
PC-3 = assay: Cytotoxicity against human PC3 cells; format: functional, cell-based

Row | IC50 [1] [nM] | IC50 [2] [nM] | IC50 [3] [nM] | SMILES | inhibition (PC-3)
1 | 24 | 730 | > 40000 | CC(C)C[C@H](NC(=O)[C@H](Cc1ccccc1)NC(=O)c1cnccn1)B(O)O [BORTEZOMIB] | 
2 | 4.4 | 7400 | 4600 | COc1ccc(C[C@H](NC(=O)Cc2cccc3ccccc23)C(=O)N[C@H](C(=O)N[C@@H](Cc2ccccc2)B(O)O)C(C)C)cc1 | 
3 | 21 | 1400 | 1900 | COc1ccc(C[C@H](N)C(=O)N[C@H](C(=O)N[C@@H](CC(C)C)B(O)O)C(C)C)cc1 | 
4 | 130 | 16000 | 3700 | COc1ccc(C[C@H](NC(=O)[C@@H](NC(=O)[C@@H](N)Cc2ccc(OC)cc2)C(C)C)B(O)O)cc1 | 
5 | 100 | 7700 | 4000 | COc1ccc(C[C@H](N)C(=O)N[C@H](C(=O)N[C@@H](Cc2ccccc2)B(O)O)C(C)C)cc1 | 
6 | 2.6 | 940 | 2800 | COc1ccc(C[C@H](NC(=O)Cc2cccc3ccccc23)C(=O)N[C@H](C(=O)N[C@@H](CC(C)C)B(O)O)C(C)C)cc1 | 
7 | 83 | > 40000 | > 40000 | COc1ccc(CC(C=O)NC(=O)[C@@H](NC(=O)[C@H](Cc2ccc(OC)cc2)NC(=O)Cc2cccc3ccccc23)C(C)C)cc1 (stereo not given in full) | Active
8 | 6.3 | > 40000 | 5600 | COc1ccc(C[C@H](NC(=O)[C@@H](NC(=O)[C@H](Cc2ccc(OC)cc2)NC(=O)Cc2cccc3ccccc23)C(C)C)B(O)O)cc1 | 
